Earlier results, collected in article PMC9289467, “A Novel Multifunctional 5,6-Dimethoxy-Indanone-Chalcone-Carbamate Hybrids Alleviates Cognitive Decline in Alzheimer’s Disease by Dual Inhibition of Acetylcholinesterase and Inflammation” (Frontiers in Aging Neuroscience, 2022).

Assays:
[1] = tested on: AChE-induced Aβ fibrillization; details: PAS inhibitors; ref Inestrosa et al., 1996; cited from earlier work
[2] = tested on: cerebrospinal fluid (CSF) Aβ; details: chronic treatment, patients with AD; ref Nitsch et al., 2000; cited from earlier work
APP processing = details: rat brains; ref Farber et al., 1995; cited from earlier work

fasciculin
effect of AChE on Aβ fibril aggregation process [1]: capable of preventing

CC[N+](C)(CC)CCC[n+]1c(-c2ccccc2)c2cc(N)ccc2c2ccc(N)cc21 [Propidium]
effect of AChE on Aβ fibril aggregation process [1]: capable of preventing

CC1OC2(CS1)CN1CCC2CC1 (centres unmarked) [AF102B]
cerebrospinal fluid (CSF) Aβ levels [2]: markedly lowered

CNC(=O)Oc1ccc2c(c1)[C@]1(C)CCN(C)[C@@H]1N2C [physostigmine]
cerebrospinal fluid (CSF) Aβ levels [2]: did not show a significant effect
APP processing (APP processing): did not change APP processing
